Patent publication US6384076B1, “Inhibition or erythrocyte sickling by N-L-alpha-aspartyl-L-phenylalanine 1-methyl ester” (Oklahoma Medical Research Foundation, priority 1998, dated 2002)
Several values for one entry are separate records, joined by “and”; a condition that tells them apart may be missing. Identical values can stand only once. Peptide text beside a SMILES is read from it.

Tests used:
RBCs containing HbS = test: Metabisulfite sickling test on heparinized patient blood treated with APM in vitro; type: cell-based, human; settings: for Number of Cells Sickled per Hundred Counted: individual patients 1-12, baseline subtracted; for Number of Cells Sickled per Hundred Counted, Avg: average over 0, 30, 120 min per patient 1-12; for Number of Cells Sickled per Hundred Counted, Mean: mean of the twelve patients' averages (control 17.7)
Procedure: Blood was drawn from twelve patients of pediatric age who were being treated by phlebotomy and exchange transfusion for their sickling disorders. Blood samples from each patient were drawn directly into heparin tubes, stored in a refrigerator at approximately 10° C., and routinely tested within 36 hours of collection. Some samples were rechecked or reanalyzed within a week of collection, and the effects on sickle hemoglobin was still present with counted values similar to those obtained within 36 hours.
Normal blood devoid of HbS was used as a control. For each heparinized patient blood sample and the normal blood control, three experimental samples were prepared containing 0.25 milliliters of normal saline and 0.25 milliliters of blood and then treated as follows: (1) one was left untreated; one was treated with 1 milligram APM; and (3) one was treated with 2 milligrams APM. All experimental samples were stored in a refrigerator at approximately 10° C. for one hour prior to testing to allow time for the APM to be absorbed by the RBCs.
Using metabisulfite to reduce HbS to the deoxy form (Daland, G. A. and Castle, W. B. 1948. J Lab Clin Med 33:1082-1088; Nelson, D. A. In Todd-Sanford-Davidsohn Clinical Diagnosis by Laboratory Methods, J. B. Henry, ed. (W. B. Saunders Co., Philadelphia, 1979, vol. 1, p. 1020), a sickling test was run on each experimental sample. The sickling inducing agent was prepared fresh daily as follows: 10 milligrams metabisulfite in 1 milliliter isotonic saline. Multiple test slides were prepared for each experimental sample by adding 3 drops of the metabisulfite inducing agent and 1 drop of the experimental sample onto the surface of a glass slide, placing a coverslip over the sample, and sealing the coverslip with a petroleum jelly bead to prevent oxygen from entering the sample. Photomicrographs were taken with a phase contrast microscope at 400 magnification at 0, 30, and 120 minutes after slide preparation, and the results were obtained from the photomicrographs as the number of sickle cells per 100 cells counted.
To account for natural or non-induced sickling of the experimental samples, a baseline sickling count was obtained for each heparinized patient blood sample and the normal blood control. Slides were prepared by adding 3 drops of saline and 1 drop of the experimental sample onto the surface of a glass slide, placing a coverslip over the sample, and sealing the coverslip with a petroleum jelly bead to prevent oxygen from entering the sample. Photomicrographs were taken with a phase contrast microscope at 400 magnification at 0, 30, and 120 minutes after slide preparation, and the results were obtained from the photomicrographs as the number of sickle cells per 100 cells counted. This number of sickle cells per 100 cells counted was considered the baseline sickling count and was subtracted from the cell counts obtained with the metabisulfite induced samples.
A timeline for APM effect was made by repeating the experiment given above with cell counts obtained at 0, 1, 2, 3, 4, 5, 24, and 27 hours post-metabisulfite induction. The results are presented in FIG. 2 as combined APM timelines for each treatment method. The antisickling effect of APM in vitro lasted for at least 27 hours. During this period, the rate of sickling in the APM treated
The effect of calcium (Ca^2+) on the effectiveness of APM was examined by repeating the experiment above with the addition of EDTA, a Ca^2+chelating agent, to normal blood control and the patient experimental samples prior to testing. FIG. 3 illustrates the comparative heparin versus EDTA treatment of the blood. […] Moreover, the addition of a calcium salt to APM formulations useful for antisickling treatment as well as in vitro applications is desirable.

whole blood viscosity [1] = test: Blood viscosity after additional in vitro APM on samples taken post in vivo treatment; type: cell-based, human; settings: 1 or 2 milligrams/milliliter APM added in vitro to 480 minute post-treatment samples
Procedure: (§1) To measure viscosity, 1.01 cc of the test fluid, i.e., either water, saline or blood, was drawn into an RBC pipette using a 50 cc syringe attached via rubber tubing to the top of the RBC pipette. Using a constant pressure of 20 mm by maintaining the pressure with visual feedback and hand pressure, the amount of time it took for the test fluid to drip out of the RBC pipette was measured with a stopwatch. Each measurement was made in triplicate.
Samples with high viscosity readings at 480 minute or 1,440 minute posttreatment, chosen to represent patients with a validated response to APM who were returning to normal, were divided and treated with an additional 0, 1, or 2 milligrams/milliliter APM in vitro, in an effort to measure whether a second inducible sickling response was possible and if a second response to the in vitro APM addition could be observed. The viscosity of each sample at 480 minutes post-treatment was measured.

[2] = tested on: osteo- and mixed osteo- and rheumatoid arthritis; settings: clinical trial, Edmundson and Manion 1998; cited from earlier work
whole blood viscosity [3] = test: Blood viscosity by RBC pipette method before and after blinded oral APM; type: in vivo, human; settings: for Blood viscosity change after treatment: baseline vs 120 minutes post-treatment
From the text: Blood samples were obtained from ten patients having homozygous HbSS disease or heterozygous HbSC disease before and after a blinded administration of APM at 1.5 (low dosage), 3 (medium dosage), or 6 (high dosage) milligrams per kilogram body weight. The patients' characteristics are given in the first ten entries in Table II.
Viscosity determinations using the RBC pipette method of Wright and Jenkins (Wright, D. J. and Jenkins, Jr., D. E. 1970. Blood 36:516-522) were made on each blinded whole blood sample before and 120 minutes after blinded administration of APM. Each measurement was made in triplicate. Control viscosity measurements using saline and water for each patient and normal whole blood sample were also made to validate the viscosity measurements.
as §1

sickling RBCs [4] = test: Blinded APM dose-response study of patients with sickle cell disorders (sickle cell counts); type: in vivo, human; settings: for Dose-response of antisickling effect: 1.5, 3, 6 mg/kg body weight
Procedure: A blinded study was conducted with 23 patients diagnosed with sickle cell disorders. Blood samples were obtained from the 23 patients having sickle cell disease (homozygous HgBss), sickle cell trait (heterozygous Hgbsc), or homozygous HbS with a β-thalassemia chain (“sbthal”) before and after a blinded administration of APM at 1.5 (low dosage), 3 (medium dosage), or 6 (high dosage) milligrams per kilogram body weight.
Blood was drawn before and 120 minutes after treatment with 0, 1.5, 3, or 6 milligrams APM per kilogram body weight in a blinded fashion from the ten patients into heparin tubes, stored in a refrigerator at approximately 10° C. and routinely tested within 36 hours of collection.
Normal blood devoid of abnormal hemoglobin was used as a control. For each heparinized patient blood sample and the normal blood control, experimental samples were prepared containing 0.25 milliliters of normal saline and 0.25 milliliters of blood. Following the metabisulfite induction as given in Example 1, the number of sickle cells relative to the number of normal cells was obtained at 0, 30, 60, 120, 240, 480, and 1440 minutes post-induction.

sickling RBCs [5] = test: Reduction of sickle cells in vivo: metabisulfite sickling test on blood of one patient before and 1 hour after oral APM; design: species or system human; settings: blood 1 hour after
Procedure: During Week 1 of the study, blood samples were taken from the patient before and one hour after an orally administered dose of 60 milligrams APM. During Week 2, blood samples were taken from the patient before and one hour after an orally administered dose of 160 milligrams APM. The blood samples and slides were prepared according to the methods given in Example 1, and cell counts were taken at 0, 30, and 120 minutes post-induction.

With `COC(=O)[C@H](Cc1ccccc1)NC(=O)[C@@H](N)CC(=O)O` [APM, N-L-alpha-aspartyl-L-phenylalanine 1-methyl ester] (H-Asp-Phe-OMe) the “Number of Cells Sickled per Hundred Counted” value (RBCs containing HbS; APM 1 mg in 0.25 ml blood + 0.25 ml saline, 0 min after slide preparation) was 1.5 per Hundred Counted (2×) and 1.0 per Hundred Counted and 0.5 per Hundred Counted and 0.0 per Hundred Counted and 2.5 per Hundred Counted (2×) and 2.0 per Hundred Counted (2×) and 9.5 per Hundred Counted (2×) and −1.0 per Hundred Counted, the “Number of Cells Sickled per Hundred Counted” value (RBCs containing HbS; APM 1 mg, 30 min after slide preparation) was 2.5 per Hundred Counted and 2.0 per Hundred Counted and −1.0 per Hundred Counted and 6.0 per Hundred Counted and 1.5 per Hundred Counted and 3.5 per Hundred Counted (2×) and 3.0 per Hundred Counted and 10.5 per Hundred Counted and 9.0 per Hundred Counted and 4.5 per Hundred Counted and −0.5 per Hundred Counted and the “Number of Cells Sickled per Hundred Counted” value (RBCs containing HbS; APM 1 mg, 120 min after slide preparation) was 1.5 per Hundred Counted and 3.5 per Hundred Counted (2×) and 1.0 per Hundred Counted and 21.0 per Hundred Counted and 2.5 per Hundred Counted and 3.0 per Hundred Counted and 12.0 per Hundred Counted and 11.0 per Hundred Counted and 4.0 per Hundred Counted and 0.5 per Hundred Counted. For the same compound, the “Number of Cells Sickled per Hundred Counted, Avg” value (RBCs containing HbS; APM 1 mg) was 1.8 per Hundred Counted and 2.2 per Hundred Counted (2×) and 0.2 per Hundred Counted and 9.0 per Hundred Counted and 2.8 per Hundred Counted (2×) and 10.7 per Hundred Counted and 9.8 per Hundred Counted and 3.2 per Hundred Counted (2×) and −0.3 per Hundred Counted, the “Number of Cells Sickled per Hundred Counted, Mean” value (RBCs containing HbS; APM 1 mg) was 4.0 per Hundred Counted and the “Number of Cells Sickled per Hundred Counted” value (RBCs containing HbS; APM 2 mg in 0.25 ml blood + 0.25 ml saline, 0 min after slide preparation) was 0.5 per Hundred Counted (2×) and 0.0 per Hundred Counted (2×) and 2.0 per Hundred Counted (2×) and 2.5 per Hundred Counted and 1.0 per Hundred Counted (2×) and 6.5 per Hundred Counted and 8.5 per Hundred Counted and −5.5 per Hundred Counted. For the same compound, the “Number of Cells Sickled per Hundred Counted” value (RBCs containing HbS; APM 2 mg, 30 min after slide preparation) was 0.5 per Hundred Counted (2×) and 1.0 per Hundred Counted and −0.5 per Hundred Counted and 6.0 per Hundred Counted and 2.0 per Hundred Counted (3×) and 1.5 per Hundred Counted and 5.0 per Hundred Counted and 8.5 per Hundred Counted and −6.5 per Hundred Counted, the “Number of Cells Sickled per Hundred Counted” value (RBCs containing HbS; APM 2 mg, 120 min after slide preparation) was −0.5 per Hundred Counted (2×) and 0.5 per Hundred Counted and 19.0 per Hundred Counted and 2.5 per Hundred Counted and 5.0 per Hundred Counted and 2.0 per Hundred Counted (2×) and 9.5 per Hundred Counted and 1.0 per Hundred Counted and −6.5 per Hundred Counted and the “Number of Cells Sickled per Hundred Counted, Avg” value (RBCs containing HbS; APM 2 mg) was 0.0 per Hundred Counted and 0.5 per Hundred Counted and −0.3 per Hundred Counted and 9.0 per Hundred Counted and 2.3 per Hundred Counted and 1.3 per Hundred Counted and 3.0 per Hundred Counted and 4.5 per Hundred Counted and 8.8 per Hundred Counted and 1.2 per Hundred Counted and 0.8 per Hundred Counted and −6.2 per Hundred Counted. The “Number of Cells Sickled per Hundred Counted, Mean” value (RBCs containing HbS; APM 2 mg) was 2.1 per Hundred Counted, the “Antisickling effect of APM with addition of EDTA” value (RBCs containing HbS; EDTA (Ca2+ chelating agent) added prior to testing) was “completely eliminated the antisickling effect” and the “Sickle cells after metabisulfite versus controls” value (RBCs containing HbS; all twelve patients, 1 and 2 mg APM, ANOVA p<0.00004) was “fewer sickle cells than the controls”. For the same compound, the “Duration of antisickling effect in vitro” value (RBCs containing HbS; counts at 0-27 hours post-metabisulfite induction) was “at least 27 hours”, the “Passage of APM across the RBC membrane” value (RBCs containing HbS; in the absence of Ca2+ (EDTA)) was “does not pass the RBC membrane” and the “Rate of sickling in APM treated cells” value (RBCs containing HbS; over 27 hours, versus controls) was “significantly less than that in the controls”. The “Viscosity of blood samples compared to the control” value (whole blood viscosity [1]; HgBss patients) was “decreased over time”, the “Viscosity of blood samples compared to the control” value (whole blood viscosity [1]; Hgbsc patients) was “increase in viscosity” and the “Pain and inflammation of arthritis” value [2] was “alleviate the pain and inflammation”. For the same compound, the “Blood viscosity change after treatment” value (whole blood viscosity [3]; HgBss patients, 1.5, 3 or 6 mg/kg) was “blood viscosity decreased”, the “No. of Patients with decreasing viscosity” value (whole blood viscosity [3]; HgBss, of five patients) was 5 and the “Blood viscosity change after treatment” value (whole blood viscosity [3]; Hgbsc patients) was “increased viscosity”. For the same compound, the “No. of Patients with increasing viscosity” value (whole blood viscosity [3]; Hgbsc, of three patients) was 3, the “Blood viscosity change after treatment” value (whole blood viscosity [3]; sbthal patients) was “blood viscosity also decreased” and the “No. of Patients with decreasing viscosity” value (whole blood viscosity [3]; sbthal, of two patients) was 2. For the same compound, the “Dose-response of antisickling effect” value (sickling RBCs [4]; HgBss and sbthal patients) was “significant dose-response effect”, the “Dose-response of antisickling effect” value (sickling RBCs [4]; Hgbsc patients) was “No dose-response effect” and the “Effect on HbSC blood” value (sickling RBCs [4]; in vivo or in vitro, sickle cell number and viscosity) was “not affected”. The “Number of sickling RBCs relative to the control” value (sickling RBCs [4]; lower dosage 1.5 mg/kg body weight) was “decrease in the number of sickling RBCs”, the “Time to reduction in number of sickle cells relative to normal cells after administration” value (sickling RBCs [4]; patients with sickle cell family diseases, effective amount) was “within one hour” and the “Number of sickling RBCs relative to the control” value (sickling RBCs [5]; 60 milligrams APM orally, patient with sickle cell anemia) was “decrease in the number of sickling RBCs”. The “Antisickling effect versus 60 milligram dosage” value (sickling RBCs [5]; 160 milligrams APM orally, same patient) was “proportionately larger”.
